Key:
Format in all cases: biochemical
[1] = system: panel of 321 protein kinases; test: Selectivity profiling in a panel of 321 protein kinases (ProQinase); conditions: 100 nM
ABL2 = ABL2 (Homo sapiens, UniProt P42684); test: ProQinase 33PanQinase selectivity profiling; conditions: 100 nM, relative to control, read-out: Residual activity (%)
AKT3 aa106-479 = molecular target: T1, AKT3 aa106-479 (Homo sapiens, UniProt Q9Y243); test: ProQinase 33PanQinase selectivity profiling; conditions: 100 nM, relative to control, read-out: Residual activity (%)
T1 construct: AKT3 aa106-479; purchased ProQinase GmbH (Freiburg, Germany)

ALK (GST-HIS-tag) = molecular target: T2, ALK (GST-HIS-tag) (Homo sapiens, UniProt Q9UM73); test: ProQinase 33PanQinase selectivity profiling; conditions: 100 nM, relative to control, read-out: Residual activity (%)
T2 construct: GST; HIS; purchased ProQinase GmbH (Freiburg, Germany)

Aurora-A = Aurora-A (Homo sapiens, UniProt O14965); test: ProQinase 33PanQinase selectivity profiling; conditions: 100 nM, relative to control, read-out: Residual activity (%)
Aurora-B = Aurora-B (Homo sapiens, UniProt Q96GD4); test: ProQinase 33PanQinase selectivity profiling; conditions: 100 nM, relative to control, read-out: Residual activity (%)
BLK = BLK (Homo sapiens, UniProt P51451); test: ProQinase 33PanQinase selectivity profiling; conditions: 100 nM, relative to control, read-out: Residual activity (%)
Sequence of BLK (P51451 whole entry): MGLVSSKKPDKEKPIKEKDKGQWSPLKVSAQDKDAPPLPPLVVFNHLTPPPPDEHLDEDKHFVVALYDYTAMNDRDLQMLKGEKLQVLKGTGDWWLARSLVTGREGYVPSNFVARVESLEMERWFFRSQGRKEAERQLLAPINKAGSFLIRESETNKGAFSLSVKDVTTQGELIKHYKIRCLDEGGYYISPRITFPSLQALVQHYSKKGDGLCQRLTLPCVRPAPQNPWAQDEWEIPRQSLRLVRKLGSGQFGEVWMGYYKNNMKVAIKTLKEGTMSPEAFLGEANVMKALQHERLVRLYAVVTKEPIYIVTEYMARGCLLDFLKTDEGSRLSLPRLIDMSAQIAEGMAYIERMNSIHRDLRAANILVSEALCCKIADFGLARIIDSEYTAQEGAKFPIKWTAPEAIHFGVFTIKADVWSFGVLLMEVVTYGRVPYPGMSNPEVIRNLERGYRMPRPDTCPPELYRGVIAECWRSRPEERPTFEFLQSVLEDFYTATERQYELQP

BTK = BTK (Homo sapiens, UniProt Q06187); test: ProQinase 33PanQinase selectivity profiling; conditions: 100 nM, relative to control, read-out: Residual activity (%)
Sequence of BTK (Q06187 whole entry): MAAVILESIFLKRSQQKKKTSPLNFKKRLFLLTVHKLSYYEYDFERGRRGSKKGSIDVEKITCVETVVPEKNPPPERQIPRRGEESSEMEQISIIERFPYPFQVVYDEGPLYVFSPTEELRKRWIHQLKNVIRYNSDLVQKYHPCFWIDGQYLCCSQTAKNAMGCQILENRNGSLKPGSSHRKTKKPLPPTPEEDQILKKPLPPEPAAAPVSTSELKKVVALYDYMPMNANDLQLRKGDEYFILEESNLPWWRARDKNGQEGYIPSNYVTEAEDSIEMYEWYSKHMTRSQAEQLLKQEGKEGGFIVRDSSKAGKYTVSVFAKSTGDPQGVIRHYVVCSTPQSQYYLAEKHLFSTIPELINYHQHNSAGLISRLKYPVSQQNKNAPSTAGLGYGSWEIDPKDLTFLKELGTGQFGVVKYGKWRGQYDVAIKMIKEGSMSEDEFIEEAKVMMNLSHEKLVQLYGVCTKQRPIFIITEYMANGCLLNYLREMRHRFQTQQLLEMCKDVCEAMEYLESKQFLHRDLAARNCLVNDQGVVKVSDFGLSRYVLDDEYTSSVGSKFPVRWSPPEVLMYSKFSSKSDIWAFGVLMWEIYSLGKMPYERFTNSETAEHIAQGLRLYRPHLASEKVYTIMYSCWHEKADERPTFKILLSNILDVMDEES

CAMK4 = CAMK4 (Homo sapiens, UniProt Q16566); test: ProQinase 33PanQinase selectivity profiling; conditions: 100 nM, relative to control, read-out: Residual activity (%)
CDK19/CycC = CDK19/CycC (Homo sapiens, UniProt Q9BWU1); test: ProQinase 33PanQinase selectivity profiling; conditions: 100 nM, relative to control, read-out: Residual activity (%)
CDK3/CycC = CDK3/CycC (Homo sapiens, UniProt Q00526); test: ProQinase 33PanQinase selectivity profiling; conditions: 100 nM, relative to control, read-out: Residual activity (%)
CDK3/CycE1 = CDK3/CycE1 (Homo sapiens, UniProt Q00526); test: ProQinase 33PanQinase selectivity profiling; conditions: 100 nM, relative to control, read-out: Residual activity (%)
CDK4/CycD1 = CDK4/CycD1 (Homo sapiens, UniProt P11802); test: ProQinase 33PanQinase selectivity profiling; conditions: 100 nM, relative to control, read-out: Residual activity (%)
CDK4/CycD3 = CDK4/CycD3 (Homo sapiens, UniProt P11802); test: ProQinase 33PanQinase selectivity profiling; conditions: 100 nM, relative to control, read-out: Residual activity (%)
CDK5/p25NCK = CDK5/p25NCK (Homo sapiens, UniProt Q00535); test: ProQinase 33PanQinase selectivity profiling; conditions: 100 nM, relative to control, read-out: Residual activity (%)
CDK5/p35NCK = CDK5/p35NCK (Homo sapiens, UniProt Q00535); test: ProQinase 33PanQinase selectivity profiling; conditions: 100 nM, relative to control, read-out: Residual activity (%)
CK1-delta = CK1-delta (Homo sapiens, UniProt P48730); test: ProQinase 33PanQinase selectivity profiling; conditions: 100 nM, relative to control, read-out: Residual activity (%)
CK1-gamma1 = CK1-gamma1 (Homo sapiens, UniProt Q9HCP0); test: ProQinase 33PanQinase selectivity profiling; conditions: 100 nM, relative to control
Sequence of CK1-gamma1 (Q9HCP0 whole entry): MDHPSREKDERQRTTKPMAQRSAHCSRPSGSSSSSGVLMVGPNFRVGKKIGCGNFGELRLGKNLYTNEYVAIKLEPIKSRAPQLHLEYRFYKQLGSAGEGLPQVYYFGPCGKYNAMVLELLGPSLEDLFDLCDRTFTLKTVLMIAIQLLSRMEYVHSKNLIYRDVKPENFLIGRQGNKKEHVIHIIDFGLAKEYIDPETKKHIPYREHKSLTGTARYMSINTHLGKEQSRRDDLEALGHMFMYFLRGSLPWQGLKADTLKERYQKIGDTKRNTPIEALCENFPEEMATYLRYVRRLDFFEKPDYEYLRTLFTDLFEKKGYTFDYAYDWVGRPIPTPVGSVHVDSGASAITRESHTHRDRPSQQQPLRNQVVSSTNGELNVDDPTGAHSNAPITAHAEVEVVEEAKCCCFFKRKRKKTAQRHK

CLK1 = CLK1 (Homo sapiens, UniProt P49759); test: ProQinase 33PanQinase selectivity profiling; conditions: 100 nM, relative to control, read-out: Residual activity (%)
Sequence of CLK1 (P49759 whole entry): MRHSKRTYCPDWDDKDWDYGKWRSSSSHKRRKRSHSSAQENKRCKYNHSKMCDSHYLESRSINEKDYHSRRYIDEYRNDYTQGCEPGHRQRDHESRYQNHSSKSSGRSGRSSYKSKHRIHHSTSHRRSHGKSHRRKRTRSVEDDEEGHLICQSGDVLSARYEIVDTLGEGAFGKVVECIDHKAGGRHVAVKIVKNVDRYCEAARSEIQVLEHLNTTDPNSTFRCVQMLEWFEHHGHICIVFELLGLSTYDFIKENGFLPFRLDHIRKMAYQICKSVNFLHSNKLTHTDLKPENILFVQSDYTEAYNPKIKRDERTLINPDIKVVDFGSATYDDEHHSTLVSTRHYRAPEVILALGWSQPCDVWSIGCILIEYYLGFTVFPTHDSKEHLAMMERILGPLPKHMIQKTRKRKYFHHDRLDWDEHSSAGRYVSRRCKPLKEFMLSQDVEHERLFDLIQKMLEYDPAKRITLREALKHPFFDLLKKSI

CLK2 = CLK2 (Homo sapiens, UniProt P49760); test: ProQinase 33PanQinase selectivity profiling; conditions: 100 nM, relative to control, read-out: Residual activity (%)
Sequence of CLK2 (P49760 whole entry): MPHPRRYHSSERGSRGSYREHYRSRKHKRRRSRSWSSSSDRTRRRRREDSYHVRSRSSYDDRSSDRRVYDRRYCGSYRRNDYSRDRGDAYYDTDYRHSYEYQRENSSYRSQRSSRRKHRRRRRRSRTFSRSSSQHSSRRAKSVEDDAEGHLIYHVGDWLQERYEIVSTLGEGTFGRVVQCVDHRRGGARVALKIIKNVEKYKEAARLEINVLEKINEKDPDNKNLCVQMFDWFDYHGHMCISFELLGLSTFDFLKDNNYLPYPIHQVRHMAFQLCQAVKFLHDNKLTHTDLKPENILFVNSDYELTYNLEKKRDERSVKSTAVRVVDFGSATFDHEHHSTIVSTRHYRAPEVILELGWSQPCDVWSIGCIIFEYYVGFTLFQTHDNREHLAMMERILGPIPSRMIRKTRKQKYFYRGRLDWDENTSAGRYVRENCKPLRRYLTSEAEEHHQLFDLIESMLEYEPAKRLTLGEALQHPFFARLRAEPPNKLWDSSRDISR

CSF1-R = molecular target: T3, CSF1-R (Homo sapiens, UniProt P07333); test: ProQinase 33PanQinase selectivity profiling; conditions: 100 nM, relative to control, read-out: Residual activity (%)
T3 construct: purchased ProQinase GmbH

DAPK3 = DAPK3 (Homo sapiens, UniProt O43293); test: ProQinase 33PanQinase selectivity profiling; conditions: 100 nM, relative to control, read-out: Residual activity (%)
Sequence of DAPK3 (O43293 whole entry): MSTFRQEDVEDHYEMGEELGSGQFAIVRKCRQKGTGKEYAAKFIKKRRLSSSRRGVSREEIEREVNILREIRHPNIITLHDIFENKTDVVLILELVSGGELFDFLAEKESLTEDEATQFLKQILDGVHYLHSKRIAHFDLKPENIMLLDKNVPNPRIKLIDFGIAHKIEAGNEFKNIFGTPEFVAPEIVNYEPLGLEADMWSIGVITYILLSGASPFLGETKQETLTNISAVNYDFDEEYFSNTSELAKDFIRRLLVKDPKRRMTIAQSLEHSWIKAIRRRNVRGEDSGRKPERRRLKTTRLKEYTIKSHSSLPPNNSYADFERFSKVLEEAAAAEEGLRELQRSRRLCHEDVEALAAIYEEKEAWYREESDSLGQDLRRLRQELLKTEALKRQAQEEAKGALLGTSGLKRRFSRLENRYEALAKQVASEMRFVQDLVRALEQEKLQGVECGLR

DYRK1A = DYRK1A (Homo sapiens, UniProt Q13627); test: ProQinase 33PanQinase selectivity profiling; conditions: 100 nM, relative to control, read-out: Residual activity (%)
DYRK3 = DYRK3 (Homo sapiens, UniProt O43781); test: ProQinase 33PanQinase selectivity profiling; conditions: 100 nM, relative to control, read-out: Residual activity (%)
Sequence of DYRK3 (O43781 whole entry): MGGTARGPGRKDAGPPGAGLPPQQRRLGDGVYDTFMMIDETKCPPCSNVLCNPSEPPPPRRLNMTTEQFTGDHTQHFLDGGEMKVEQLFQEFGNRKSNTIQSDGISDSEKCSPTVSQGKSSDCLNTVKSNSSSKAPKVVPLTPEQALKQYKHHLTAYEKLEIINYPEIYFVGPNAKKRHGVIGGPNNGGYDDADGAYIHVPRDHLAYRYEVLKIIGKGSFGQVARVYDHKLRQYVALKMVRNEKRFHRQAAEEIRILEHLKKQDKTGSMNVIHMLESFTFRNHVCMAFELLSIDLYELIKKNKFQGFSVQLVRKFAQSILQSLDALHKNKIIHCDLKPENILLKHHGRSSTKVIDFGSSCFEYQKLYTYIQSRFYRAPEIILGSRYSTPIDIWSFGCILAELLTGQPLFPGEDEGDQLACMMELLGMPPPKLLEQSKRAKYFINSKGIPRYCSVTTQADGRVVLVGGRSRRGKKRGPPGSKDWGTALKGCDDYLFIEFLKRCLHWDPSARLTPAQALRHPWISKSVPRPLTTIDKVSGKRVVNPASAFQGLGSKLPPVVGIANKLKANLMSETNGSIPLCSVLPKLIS

EPHA2 = EPHA2 (Homo sapiens, UniProt P29317); test: ProQinase 33PanQinase selectivity profiling; conditions: 100 nM, relative to control, read-out: Residual activity (%)
p38α MAPK = p38α MAPK (Homo sapiens, UniProt Q16539); test: ProQinase 33PanQinase selectivity profiling; conditions: 100 nM, relative to control, read-out: residual activity
JNK3 = JNK3 (Homo sapiens, UniProt P53779); test: ProQinase 33PanQinase selectivity profiling; conditions: 100 nM, relative to control, read-out: residual activity
RIPK2 = RIPK2 (Homo sapiens, UniProt O43353); test: ProQinase 33PanQinase selectivity profiling; conditions: 100 nM, relative to control, read-out: residual activity
LCK = LCK (Homo sapiens, UniProt P06239); test: ProQinase 33PanQinase selectivity profiling; conditions: 100 nM, relative to control, read-out: residual activity

Sequence of ABL2 (P42684 whole entry, the tested form may be a part): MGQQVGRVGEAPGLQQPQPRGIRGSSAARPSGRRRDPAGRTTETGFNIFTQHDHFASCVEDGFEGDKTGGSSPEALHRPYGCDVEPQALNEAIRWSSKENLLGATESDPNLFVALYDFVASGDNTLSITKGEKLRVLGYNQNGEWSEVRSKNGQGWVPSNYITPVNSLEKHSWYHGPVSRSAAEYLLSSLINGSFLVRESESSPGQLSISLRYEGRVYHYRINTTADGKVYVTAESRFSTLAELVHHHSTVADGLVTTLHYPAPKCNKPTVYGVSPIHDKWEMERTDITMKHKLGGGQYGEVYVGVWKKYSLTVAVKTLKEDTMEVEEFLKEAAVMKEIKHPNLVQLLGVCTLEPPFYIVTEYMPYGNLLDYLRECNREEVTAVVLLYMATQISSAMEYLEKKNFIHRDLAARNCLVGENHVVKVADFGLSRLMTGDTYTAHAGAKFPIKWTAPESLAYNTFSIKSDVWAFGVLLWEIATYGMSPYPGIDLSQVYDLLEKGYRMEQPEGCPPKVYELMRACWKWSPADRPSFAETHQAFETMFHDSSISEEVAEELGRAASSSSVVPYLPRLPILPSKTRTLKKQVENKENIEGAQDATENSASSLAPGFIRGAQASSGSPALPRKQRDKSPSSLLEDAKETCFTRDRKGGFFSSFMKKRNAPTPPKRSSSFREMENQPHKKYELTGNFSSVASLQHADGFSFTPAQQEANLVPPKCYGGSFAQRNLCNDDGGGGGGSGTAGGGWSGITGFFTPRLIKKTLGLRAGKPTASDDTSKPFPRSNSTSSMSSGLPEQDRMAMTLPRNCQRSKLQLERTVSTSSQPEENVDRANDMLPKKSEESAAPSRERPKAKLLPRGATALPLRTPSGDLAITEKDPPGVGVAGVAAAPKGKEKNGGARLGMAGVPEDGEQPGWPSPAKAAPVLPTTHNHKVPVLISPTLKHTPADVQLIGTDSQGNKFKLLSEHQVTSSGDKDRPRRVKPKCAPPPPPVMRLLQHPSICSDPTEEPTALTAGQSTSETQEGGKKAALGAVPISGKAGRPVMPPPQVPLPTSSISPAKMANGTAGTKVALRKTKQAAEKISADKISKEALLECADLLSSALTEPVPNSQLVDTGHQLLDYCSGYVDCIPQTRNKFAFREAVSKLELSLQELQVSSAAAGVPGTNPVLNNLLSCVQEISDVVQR

COc1ccc(OC)c(CCC(=O)Nc2cc(-c3nc(SC)[nH]c3-c3ccc(F)cc3)ccn2)c1 [11b, 3-(2,5-Dimethoxyphenyl)-N-(4-(5-(4-fluorophenyl)-2-(methylthio)-1H-imidazol-4-yl)-pyridin-2-yl)-propanamide]
selectivity score S(50) ([1]; 321 protein kinases, calculated in accordance to Karaman et al.): 0.027
additional kinases with residual activities less than 50% apart from CK1δ and CK1ε ([1]; panel of 321 protein kinases): six
remaining activity at 0.1 µM (ABL2): 91%
remaining activity at 0.1 µM (AKT3 aa106-479): 83%
remaining activity at 0.1 µM (ALK (GST-HIS-tag)): 114%
remaining activity at 0.1 µM (Aurora-A): 93%
remaining activity at 0.1 µM (Aurora-B): 92%
remaining activity at 0.1 µM (BLK): 77%
remaining activity at 0.1 µM (BTK): 105%
remaining activity at 0.1 µM (CAMK4): 95%
remaining activity at 0.1 µM (CDK19/CycC): 86%
remaining activity at 0.1 µM (CDK3/CycC): 95%
remaining activity at 0.1 µM (CDK3/CycE1): 98%
remaining activity at 0.1 µM (CDK4/CycD1): 98%
remaining activity at 0.1 µM (CDK4/CycD3): 88%
remaining activity at 0.1 µM (CDK5/p25NCK): 117%
remaining activity at 0.1 µM (CDK5/p35NCK): 85%
remaining activity at 0.1 µM (CK1-delta): 3%
Residual activity (%) (CK1-gamma1): unaffected
remaining activity at 0.1 µM (CK1-gamma1; read-out: Residual activity (%)): 100%
remaining activity at 0.1 µM (CLK1): 105%
remaining activity at 0.1 µM (CLK2): 101%
remaining activity at 0.1 µM (CSF1-R): 104%
remaining activity at 0.1 µM (DAPK3): 85%
remaining activity at 0.1 µM (DYRK1A): 96%
remaining activity at 0.1 µM (DYRK3): 97%
remaining activity at 0.1 µM (EPHA2): 95%
remaining activity at 0.1 µM (p38α MAPK): 22%
remaining activity at 0.1 µM (JNK3): 37%
remaining activity at 0.1 µM (RIPK2): 45%
remaining activity at 0.1 µM (LCK): 26%

From publication PMC6154583, “Optimized 4,5-Diarylimidazoles as Potent/Selective Inhibitors of Protein Kinase CK1δ and Their Structural Relation to p38α MAPK” (Molecules : A Journal of Synthetic Chemistry and Natural …, 2017)
